Holding throughout (format): cell-based
Experiment [1] concerns TNF production. Kind of experiment: Inhibition of LPS-stimulated TNF production in the human monocytic cell line THP-1 (ELISA). The following applies: for TNF LEVEL % Control (LPS alone); Ave. ± S.D. / activity at 10 µM: THP-1 cells, DRUG [10 µM], LPS 1 µg/mL; for activity at 10 µM / inhibition at 10 µM: Homo sapiens; for activity at 10 µM: 6 h, read-out: TNF LEVEL % Control (LPS alone), Ave. ± S.D.; for inhibition at 10 µM / effectiveness against LPS-stimulated TNF production (in words): LPS-stimulated THP-1 cells; for inhibition at 10 µM: drug 10 µM, read-out: inhibition of TNF production; for effectiveness against LPS-stimulated TNF production (in words): 10 µM. How it is done:
Cultures were maintained by the addition of fresh growth medium to a T-75 or T-150 flask of cells in suspension, or by pelleting the cells and re-suspending them in the appropriate volume of fresh medium. Maximum cell density was 1.0 x 10^6 cells per mL and cultures were seeded at a minimum density of 0.2 x 10^6 cells per ml.
THP-1 cells were plated into 24-well plates at a density of 1.0 x 10^6 cells per mL in 0.5 mL medium per well. […] For measurement of IL-1α and IL-1β production, THP-1 cells were incubated with 500 ng/mL or 50 ng/mL LPS and incubated for 16 hours. Levels of secreted cytokine were measured in cell supernatants as for TNF. Cell-associated species were measured in cell lysates which were prepared by repetitive freeze-thawing of cells. For in vitro screening, drugs at 10 µM concentration were co-administered with LPS. […] Drug effects on cell viability were assessed by the MTT assay. […] Water-soluble drugs were dissolved in aqueous solutions such as RPMI or deionized H20. The final concentration of DMSO in the incubation medium was at or below 0.01% and that of ethanol was at or below 0. 1%. The effect on cell viability was evaluated by the MTT assay.

For experiment [2], the system named is TNF production. Kind of experiment: Inhibition of TPA-stimulated TNF production in human epidermal keratinocytes (ELISA). The following applies: for activity at 10 µM: epidermal keratinocytes, read-out: TNF LEVEL % Control (LPS alone), Ave. ± S.D. For orientation: In an ELISA, binding on a coated surface is turned into a signal by an enzyme label.
Experiment [3] deals with TNF production. Kind of experiment: Inhibition of LPS-stimulated TNF production in the mouse macrophage line RAW 264.7 (ELISA). The following applies: RAW cells; for TNF LEVEL % Control (LPS alone); Ave. ± S.D. / activity at 10 µM: DRUG [10 µM], LPS at 10 ng/mL; for activity at 10 µM: RAW264.7, 6 h, read-out: TNF LEVEL % Control (LPS alone), Ave. ± S.D.; for inhibition at 10 µM: LPS 10 ng/mL, read-out: inhibition of LPS-stimulated TNF secretion. How it is done:
Cells were passaged at confluence by scraping and routinely plated at a density of 0.25 x 10^6 and 0.5 x 10^6 cells per T-75 and T-150, respectively.
Typically, RAW cells were plated at 0.25 x 10^6 cells per well of a 24-well plate, in 0.5 mL media per well on the day prior to experimentation. […] 1%. Drugs were co-administered with the stimulant, LPS. After a 6-hr incubation period with LPS ± drug (n = 3-4), the media from the experimental wells was harvested, the cells were removed by microcentrifugation, and the media assayed for TNF by ELISA. Drugs were screened at 10 µM for their ability to alter TNF production by cells stimulated with 1 µg/mL or 10 ng/mL LPS. Dexamethasone, an anti-inflammatory corticosteroid, served as the reference for inhibition of the LPS response.

The mark [4] stands for this setting: Homo sapiens, HEK cells, DRUG [10 µM], stimulation by TPA 10 ng/mL.
Setting [5] is: Mus musculus, RAW264.7, drug 10 µM.

For `COc1ccc(CCN(C)CCC[C@](C#N)(c2ccc(OC)c(OC)c2)C(C)C)cc1OC` [(+)-Verapamil, (+)-verapamil], in the experiment on TNF production [1], the “TNF LEVEL % Control (LPS alone); Ave. ± S.D.” value (from here on “TNF LEVEL % Control”) is reported as 51±2 % Control.

For the compound `COc1ccc(CCN(C)CCC[C@@](C#N)(c2ccc(OC)c(OC)c2)C(C)C)cc1OC` [(-)-Verapamil, (-)-verapamil], in the experiment on TNF production [1], the “TNF LEVEL % Control” value turned out to be 53±3 % Control.

With `NCC(O)c1ccc(O)c(O)c1` (stereo not shown) [Arterenol], the “TNF LEVEL % Control” value with TNF production [1] was 1±0.2 % Control; in the experiment with TNF production [2] (HEK cells, DRUG [10 µM], stimulation by TPA 10 ng/mL) it was 47±10 % Control; in the experiment with TNF production [3], 38±4 % Control.

Take `CC(C)COCC(CN(Cc1ccccc1)c1ccccc1)N1CCCC1` (stereo not shown) [Bepridil, 1-Pyrrolidieneethanamine, b-[(2-methylpropoxy)methyl]-N-phenyl-N-(phenylmethyl)]: the activity at 10 µM with TNF production [1] is 77 ± 9%; in the experiment with TNF production [3] (Mus musculus), 40 ± 4%.

The term inhibition denotes the change of the read-out against control, counted positive when it falls. In the case of `C[C@@H]1C[C@H]2[C@@H]3CCC4=CC(=O)C=C[C@]4(C)[C@@]3(F)[C@@H](O)C[C@]2(C)[C@@]1(O)C(=O)CO` [Dexamethasone, dexamethasone], the activity at 10 µM in the experiment on TNF production [1] was found to be 33 ± 14%; with TNF production [2] (setting [4]), 48 ± 12%; in the experiment with TNF production [3] (Mus musculus), 39 ± 27%. The inhibition at 10 µM was 67% in the experiment on TNF production [1] and above 55% in the experiment with TNF production [2] (Homo sapiens, Keratinocyte, keratinocytes, TPA 10 ng/mL, drug 10 µM, read-out: inhibition of the response to TPA (TNF production)). In addition, the “inhibition of the stimulated production of TNF (decrease of secreted TNF vs LPS alone)” value with TNF production [3] (drug 10 µM, LPS dose not stated) was 60%.

Consider `COc1ccc([C@@H]2Sc3ccccc3N(CCN(C)C)C(=O)[C@@H]2OC(C)=O)cc1` [Diltiazem, 1,5-Benzothiazepin-4(5H)-one, 3-(acetyloxy)-5-[2-(dimethylamino)ethyl]-2,3-dihydro-2-(4-methoxyphenyl)-, (2S-cis)-], for which, in the experiment on TNF production [1], the activity at 10 µM was 86 ± 16% and the “effectiveness against LPS-stimulated TNF production (in words)” value (from here on “effectiveness”) is listed as “much less effective”. Besides, in the experiment on TNF production [3] (Mus musculus), the activity at 10 µM came out at 47 ± 1%.

Take `CCOC(=O)C1(c2ccccc2)CCN(CCC(C#N)(c2ccccc2)c2ccccc2)CC1` [Diphenoxylate, diphenoxylate]: in the experiment with TNF production [2] (Homo sapiens), the activity at 10 µM is 68 ± 10%.

Turning to `NS(=O)(=O)c1cc(C(=O)O)c(NCc2ccco2)cc1Cl` [Furosemide, benzoic acid, 5-(aminosulfonyl)-4-chloro-2-[(2-furanylmethyl)amino]-], in the experiment on TNF production [3] (Mus musculus), the activity at 10 µM stood at 49 ± 4%. Further, in the experiment on TNF production [3] (setting [5]), the inhibition at 10 µM is around 49%. In addition, the “effectiveness” value in the experiment on TNF production [3] (drug 10 µM) is given as “comparable to amiloride”.

Turning to `COC(=O)C1=C(C)NC(C)=C(C(=O)OC(C)C)C1c1cccc2nonc12` (stereo not shown) [Isradipine, 3,5-Pyridinecarboxylic acid, 4-(4-benzofurazanyl)-l,4-dihydro-2,6-dimethyl, methyl 1-methylethyl ester], the activity at 10 µM with TNF production [1] amounted to 77 ± 8%; with TNF production [2] (setting [4]), 60 ± 7%. The results for the “effectiveness” value with TNF production [1] and with TNF production [3] (drug 10 µM) were “much less effective” and “as effective as dexamethasone”, respectively.

In the case of `COC(=O)C1=C(C)NC(C)=C(C(=O)OCCN(C)Cc2ccccc2)C1c1cccc([N+](=O)[O-])c1` (stereo not shown) [Nicardipine, 3,5-Pyridinedicarboxylic acid, 1,4-dihydro-2,6-dimethyl-4-(3-nitrophenyl)-, methyl 2-[methyl(phenylmethyl)amino]ethyl ester], the activity at 10 µM was 44 ± 1% in the experiment with TNF production [1] and 59 ± 35% with TNF production [3] (Mus musculus). Also, the inhibition at 10 µM in the experiment with TNF production [1] came out at 56%.

Regarding `COC(=O)C1=C(C)NC(C)=C(C(=O)OC)C1c1ccccc1[N+](=O)[O-]` [Nifedipine], the activity at 10 µM in the experiment on TNF production [1] is 119%; in the experiment on TNF production [2] (setting [4]) it was 88 ± 40%; in the experiment on TNF production [3] (Mus musculus), 79 ± 24%.

For `COCCOC(=O)C1=C(C)NC(C)=C(C(=O)OC(C)C)C1c1cccc([N+](=O)[O-])c1` (stereo not shown) [Nimodipine, nimodipine], the activity at 10 µM with TNF production [1] turned out to be 81 ± 4%; in the experiment with TNF production [2] (setting [4]) it was 15 ± 3%; in the experiment on TNF production [3] (Mus musculus) it was 37 ± 3%.

On to `CC(=O)CCCCn1c(=O)c2c(ncn2C)n(C)c1=O` [Pentoxifylline, pentoxifylline], for which the results for the activity at 10 µM in the experiment with TNF production [1] and in the experiment on TNF production [3] (Mus musculus) were at least 100% and 43 ± 2%, respectively. For the same compound, the inhibition at 10 µM in the experiment with TNF production [3] (setting [5]) is 57%.

As usually defined, the IC50 is the concentration that gives 50% inhibition. A high value points to lower potency. With `CCCCOc1cc(CC2CNC(=O)N2)ccc1OC` (stereo not shown) [RO 20-1724], the inhibition at 10 µM in the experiment with TNF production [1] was determined as 55%; with TNF production [3] (setting [5]), 47%. Further, the “TNF LEVEL % Control” value in the experiment on TNF production [1] is on record as 45±34 % Control; in the experiment on TNF production [3], 47±23 % Control. In addition, the IC50 in the experiment with TNF production [3] (Mus musculus, RAW264.7) lay within 1 to 10 nM.

With `COC(=O)C1=C(C)NC(C)=C(C(=O)OC(C)(C)CN(C)CCC(c2ccccc2)c2ccccc2)C1c1cccc([N+](=O)[O-])c1` (stereo not shown) [Rec 15/2375], the results for the “TNF LEVEL % Control” value in the experiment on TNF production [1] and in the experiment with TNF production [3] were 57±15 % Control and 33± 1 % Control, respectively.

For `CC(=O)S[C@@H]1CC2=CC(=O)CC[C@]2(C)[C@H]2CC[C@@]3(C)[C@@H](CC[C@@]34CCC(=O)O4)[C@H]12` [Spironolactone, spironolactone], in the experiment with TNF production [1], the activity at 10 µM worked out at 54 ± 8%, the inhibition at 10 µM came out at 46% and the “effectiveness” value is “as effective as amiloride”.

With `CC(C)(C)NCC(O)c1cc(O)cc(O)c1` (stereo not shown) [Terbutaline, terbutaline], the activity at 10 µM in the experiment with TNF production [1] was found to be 12 ± 4%; in the experiment on TNF production [2] (setting [4]), 36 ± 8%; in the experiment on TNF production [3] (Mus musculus), 33 ± 9%.

On to `O=C1CCC(N2C(=O)c3ccccc3C2=O)C(=O)N1` (stereo not shown) [Thalidomide], for which the activity at 10 µM with TNF production [1] is 78 ± 9%; in the experiment with TNF production [2] (setting [4]) it was at least 100%; with TNF production [3] (Mus musculus), 67 ± 37%.

Regarding `NCCCCCCNS(=O)(=O)c1cccc2c(Cl)cccc12` [W-7], the inhibition at 10 µM in the experiment with TNF production [1] was 40 to 50%.

With `CCCCNc1cc(C(=O)O)cc(S(N)(=O)=O)c1Oc1ccccc1` [bumetanide], the “effectiveness” value in the experiment with TNF production [3] (drug 10 µM) is “minimal inhibition”.

Take `Clc1ccc(C(c2ccc(Cl)cc2)n2cc[n+](CC(OCc3ccc(Cl)cc3Cl)c3ccc(Cl)cc3Cl)c2)cc1` (stereo not shown) [calmidazolium]: in the experiment on TNF production [1], the inhibition at 10 µM fell in the range of 40 to 50%.

On to `CN(C)c1nc(N)c(C(=O)N=C(N)N)nc1Cl` [dimethylamiloride], for which the “effectiveness” value in the experiment with TNF production [3] (drug 10 µM) was “same extent of inhibition as amiloride”.

With `O=C1c2c(O)cccc2Cc2cccc(O)c21` [dithranol], the inhibition at 10 µM with TNF production [3] (setting [5]) amounted to 67%.

For `Fc1ccc(C(c2ccc(F)cc2)N2CCN(C/C=C/c3ccccc3)CC2)cc1` [flunarizine, Peperizine, 1-[bis(4-fluorophenyl)methyl]-4-(3-phenyl-2-propenyl)-, (E)], the inhibition at 10 µM in the experiment on TNF production [3] (setting [5]) was found to be 63%.

As to `NC(N)=NC(=O)c1nc(Cl)c(N2CCCCCC2)nc1N` [hexamethylamiloride], the “effect on TPA-stimulated levels of TNF (in words)” value with TNF production [2] (human keratinocytes, TPA 10 ng/mL, drug 10 µM) is recorded as “several fold higher”. Besides, the “effectiveness” value with TNF production [3] (drug 10 µM) is given as “tremendous decrease”.

Turning to `COc1ccc2c(c1)CCC(c1ccccc1)=C2c1ccc(OCCN2CCCC2)cc1` [nafoxidine], the inhibition at 10 µM in the experiment with TNF production [3] (setting [5]) is around 65%.

Take `O=c1[nH]c2ccccc2n1C1CCN(CCCC(c2ccc(F)cc2)c2ccc(F)cc2)CC1` [pimozide]: the inhibition at 10 µM in the experiment with TNF production [3] (setting [5]) was in the range of 60 to 70%.

For the compound `CC/C(=C(\c1ccccc1)c1ccc(OCCN(C)C)cc1)c1ccccc1` [tamoxifen], the inhibition at 10 µM in the experiment on TNF production [3] (setting [5]) was around 65%.

`CSc1ccc2c(c1)N(CCC1CCCCN1C)c1ccccc1S2` (stereo not shown) [thioridazine]: the inhibition at 10 µM with TNF production [3] (setting [5]) is 60 to 70%.

For the origin of these results see patent publication EP0937460A2, “Use of an antidiarrheal for the manufacture of a medicament for the treatment of inflammatory conditions” (Adolor Corporation, priority 1994, dated 1995).
